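The concentration for 50% growth inhibition is given as GI50. The concentration for full growth arrest is given as TGI.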
Legend:
Experiment in all cases: NCI-60 cell line screen, 384-well format
[1] = tested on: SF-539 CNS
[2] = tested on: U251 glioblastoma
[3] = tested on: HT29 colon
[4] = tested on: UACC-257 melanoma
[5] = tested on: T-47D breast
[6] = tested on: SF-268 CNS
[7] = tested on: BT-549 breast
[8] = tested on: EKVX NSCLC
[9] = tested on: MCF7 breast
[10] = tested on: RPMI-8226 leukemia
[11] = tested on: NCI-H23 lung
[12] = tested on: MDA-MB-435 melanoma
[13] = tested on: UO-31 renal
[14] = tested on: PC-3 prostate
[15] = tested on: TK-10 renal
[16] = tested on: NCI/ADR-RES ovarian
[17] = tested on: IGROV1 ovarian
[18] = tested on: MDA-MB-231 breast
[19] = tested on: SNB-75 CNS
[20] = tested on: SW-620 colon
[21] = tested on: A549 NSCLC
[22] = tested on: OVCAR-8 ovarian
[23] = tested on: SK-OV-3 ovarian
[24] = tested on: NCI-H226 lung
[25] = tested on: K-562 leukemia
[26] = tested on: KM12 colon
[27] = tested on: HS 578T breast
[28] = tested on: SN12C renal
[29] = tested on: MALME-3M melanoma
[30] = tested on: RXF 393 renal
[31] = tested on: CCRF-CEM leukemia
[32] = tested on: OVCAR-3 ovarian
[33] = tested on: LOX IMVI melanoma
[34] = tested on: 786-0 renal
[35] = tested on: ACHN renal
[36] = tested on: A498 renal
[37] = tested on: SR leukemia
[38] = tested on: CAKI-1 renal
[39] = tested on: HOP-62 NSCLC
[40] = tested on: SK-MEL-5 melanoma
[41] = tested on: HCT-116 colon
[42] = tested on: COLO 205 colon
[43] = tested on: SNB-19 CNS
[44] = tested on: UACC-62 melanoma
[45] = tested on: MOLT-4 leukemia
[46] = tested on: OVCAR-4 ovarian
[47] = tested on: SK-MEL-28 melanoma
[48] = tested on: MDA-MB-468 breast
[49] = tested on: NCI-H322M lung
[50] = tested on: M14 melanoma
[51] = tested on: SF-295 CNS
[52] = tested on: HCC-2998 colon
[53] = tested on: DU-145 prostate
[54] = tested on: HL-60(TB) leukemia
[55] = tested on: NCI-H460 NSCLC
[56] = tested on: NCI-H522 lung
[57] = tested on: HOP-92 NSCLC
[58] = tested on: HCT-15 colon
[59] = tested on: OVCAR-5 ovarian

For `Cc1sc2c(c1C)C(c1ccc(Cl)cc1)=N[C@@H](CC(=O)Nc1ccc(O)cc1)c1nnc(C)n1-2`, the GI50 [1] was 292 nM, the TGI [1] was 12.5 µM and the GI50 [2] was 0.644 µM. The TGI [2] was 14.6 µM, the GI50 [3] was 0.104 µM and the TGI [3] was 2080 nM. For the same compound, the GI50 [4] was 174 nM, the TGI [4] was 16.4 µM and the GI50 [5] was 0.252 µM. For the same compound, the TGI [5] was 15.3 µM, the GI50 [6] was 0.627 µM and the TGI [6] was 12.8 µM. The GI50 [7] was 41.7 nM, the TGI [7] was 1780 nM and the GI50 [8] was 3.09 µM. The TGI [8] was 20.1 µM, the GI50 [9] was 54.3 nM and the TGI [9] was 12.4 µM. For the same compound, the GI50 [10] was 23.1 nM, the TGI [10] was 153 nM and the GI50 [11] was 0.213 µM. The TGI [11] was 2860 nM, the GI50 [12] was 1.03 µM and the TGI [12] was 12.6 µM. For the same compound, the GI50 [13] was 0.632 µM, the TGI [13] was 14.4 µM and the GI50 [14] was 228 nM. For the same compound, the TGI [14] was 14.6 µM, the GI50 [15] was 0.154 µM and the TGI [15] was 3.7 µM. The GI50 [16] was 1890 nM, the TGI [16] was 8.45 µM and the GI50 [17] was 158 nM. For the same compound, the TGI [17] was 4.13 µM, the GI50 [18] was 81.6 nM and the TGI [18] was 14.3 µM. The GI50 [19] was 0.367 µM, the TGI [19] was 13.7 µM and the GI50 [20] was 1.18 µM. It also gave a TGI [20] of 18.5 µM, a GI50 [21] of 596 nM and a TGI [21] of 14.7 µM. For the same compound, the GI50 [22] was 0.118 µM, the TGI [22] was 1570 nM and the GI50 [23] was 173 nM. It also gave a TGI [23] of 5.48 µM, a GI50 [24] of 98.3 nM and a TGI [24] of 8.21 µM. For the same compound, the GI50 [25] was 0.133 µM, the TGI [25] was 13.4 µM and the GI50 [26] was 0.471 µM. For the same compound, the TGI [26] was 16.4 µM, the GI50 [27] was 0.0372 µM and the TGI [27] was 355 nM. For the same compound, the GI50 [28] was 0.42 µM, the TGI [28] was 13.1 µM and the GI50 [29] was 0.194 µM. The TGI [29] was 3.6 µM, the GI50 [30] was 0.74 µM and the TGI [30] was 4.39 µM. For the same compound, the GI50 [31] was 106 nM, the TGI [31] was 8 µM and the GI50 [32] was 0.0666 µM. The TGI [32] was 1910 nM, the GI50 [33] was 0.108 µM and the TGI [33] was 266 nM. It also gave a GI50 [34] of 0.114 µM, a TGI [34] of 12.6 µM and a GI50 [35] of 0.877 µM. The TGI [35] was 15.6 µM, the GI50 [36] was 0.38 µM and the TGI [36] was 10.4 µM. It also gave a GI50 [37] of 11.7 nM, a TGI [37] of 0.0588 µM and a GI50 [38] of 0.0449 µM. The TGI [38] was 7.15 µM, the GI50 [39] was 0.158 µM and the TGI [39] was 3.9 µM. For the same compound, the GI50 [40] was 0.304 µM, the TGI [40] was 10.7 µM and the GI50 [41] was 235 nM. For the same compound, the TGI [41] was 12.5 µM, the GI50 [42] was 164 nM and the TGI [42] was 2090 nM. The GI50 [43] was 0.355 µM, the TGI [43] was 16.7 µM and the GI50 [44] was 0.0422 µM. The TGI [44] was 2960 nM, the GI50 [45] was 61 nM and the TGI [45] was 1280 nM. The GI50 [46] was 128 nM, the TGI [46] was 798 nM and the GI50 [47] was 0.581 µM. The TGI [47] was 15.7 µM, the GI50 [48] was 0.175 µM and the TGI [48] was 1940 nM. The GI50 [49] was 0.219 µM, the TGI [49] was 14.3 µM and the GI50 [50] was 0.262 µM. For the same compound, the TGI [50] was 12.1 µM, the GI50 [51] was 0.803 µM and the TGI [51] was 13.1 µM. It also gave a GI50 [52] of 0.107 µM, a TGI [52] of 1050 nM and a GI50 [53] of 1.17 µM. For the same compound, the TGI [53] was 28 µM, the GI50 [54] was 0.0114 µM and the TGI [54] was 44.6 nM. The GI50 [55] was 337 nM, the TGI [55] was 14.9 µM and the GI50 [56] was 0.0624 µM. The TGI [56] was 730 nM, the GI50 [57] was 156 nM and the TGI [57] was 11.5 µM. For the same compound, the GI50 [58] was 247 nM and the TGI [58] was 7.33 µM.

Work on `O=c1[nH]cc(F)c(=O)[nH]1` yielded a GI50 [1] of 4200 nM, a GI50 [2] of 22 µM and a GI50 [3] of 7.03 µM. For the same compound, the GI50 [5] was 78.3 µM, the GI50 [6] was 45.2 µM and the GI50 [7] was 3960 nM. For the same compound, the GI50 [9] was 2580 nM, the GI50 [10] was 162 nM and the TGI [10] was 476 nM. For the same compound, the GI50 [11] was 29.6 µM, the GI50 [12] was 16.8 µM and the GI50 [13] was 8.23 µM. For the same compound, the GI50 [14] was > 80500 nM, the GI50 [15] was 35.1 µM and the GI50 [17] was > 30600 nM. The GI50 [18] was > 89700 nM, the GI50 [19] was 7.12 µM and the TGI [19] was > 29.7 µM. For the same compound, the GI50 [20] was 25 µM, the GI50 [21] was 2210 nM and the GI50 [22] was 37.2 µM. For the same compound, the GI50 [23] was > 69900 nM, the GI50 [25] was 18.7 µM and the GI50 [26] was 6.5 µM. It also gave a GI50 [27] of 12.1 µM, a GI50 [28] of 14.5 µM and a GI50 [29] of 85.5 µM. The GI50 [30] was 27.7 µM, the GI50 [31] was > 27900 nM and the GI50 [32] was 6.27 µM. For the same compound, the TGI [32] was > 86500 nM, the GI50 [33] was 17.1 µM and the GI50 [34] was 9.77 µM. The GI50 [35] was 11.6 µM, the GI50 [36] was 5.89 µM and the GI50 [37] was 2000 nM. The TGI [37] was 6.89 µM, the GI50 [38] was 9.98 µM and the GI50 [39] was 13.6 µM. For the same compound, the GI50 [40] was 5.77 µM, the GI50 [41] was 3940 nM and the GI50 [42] was 1450 nM. The GI50 [43] was 51.7 µM, the GI50 [44] was 8.73 µM and the GI50 [45] was 1640 nM. It also gave a TGI [45] of 3260 nM, a GI50 [47] of 19.3 µM and a GI50 [48] of 41.8 µM. For the same compound, the TGI [48] was > 86200 nM, the GI50 [49] was 32.7 µM and the GI50 [50] was 65.7 µM. The GI50 [59] was 13.1 µM, the GI50 [51] was 22 µM and the GI50 [52] was 13.6 µM. For the same compound, the GI50 [53] was 5.49 µM, the GI50 [54] was 11 µM and the GI50 [55] was 3230 nM. The TGI [55] was 38.8 µM, the GI50 [56] was 55.6 µM and the GI50 [58] was 5280 nM.
